Here are results for 16 compounds from ChEMBL document CHEMBL1671783, “3-Thiomorpholin-8-oxo-8H-acenaphtho[1,2-b]pyrrole-9-carbonitrile (S1) based molecules as potent, dual inhibitors of B-cell lymphoma 2 (Bcl-2) and myeloid cell leukemia sequence 1 (Mcl-1): structure-based design and structure-activity relationship studies” (J Med Chem, 2011).

Calls of active or inactive are those of the source. No cut-off for these calls is given here. Where only a bound is given, the exact number is not on record here.

For assay [1], the target named is T1, Induced myeloid leukemia cell differentiation protein Mcl-1 (Homo sapiens, UniProt Q07820). Kind of assay: Displacement of FAM-Bid from human Mcl-1 after 30 mins by fluorescence polarization assay. On the technique in general: Fluorescence polarisation rises when a labelled molecule tumbles more slowly, as on binding a larger partner.
In assay [2] the target is T2, MCL1-BAK1 complex (Homo sapiens) (UniProt Q07820+Q16611). As to the kind of experiment: Inhibition of Mcl-1/Bak interaction in human MCF7 cells at 10 uM after 3 hrs by Western blotting. The class given is cell-based. In general terms: Immunoblotting shows a protein as a band on a membrane.
The target in assay [3] is T2, MCL1-BAK1 complex (Homo sapiens). As to the kind of experiment: Inhibition of Mcl-1/Bak interaction in human SMMC7721 cells at 10 uM after 3 hrs by Western blotting. The format is cell-based. Conditions: SMMC-7721.
Assay [4] concerns MCF7. Kind of assay: Cytotoxicity against human MCF7 cells after 24 hrs by MTT assay. The format is functional, cell-based. Conditions: MCF7, 24 h.
Assay [5] concerns SMMC-7721. As to the kind of experiment: Cytotoxicity against human SMMC7721 cells after 24 hrs by MTT assay. The class given is functional, cell-based. To be noted: SMMC-7721, 24 h. (In general: Formazan colour is commonly taken as a measure of viable cells.)
For assay [6], the system named is SMMC-7721. As to the kind of experiment: Cytotoxicity against human SMMC7721 cells expressing high level of Mcl-1 after 24 hrs by MTT assay. Conditions: SMMC-7721, 24 h. The format is functional, cell-based.
Assay [7] has as its system HEK293. Kind of assay: Cytotoxicity against human HEK293 cells after 24 hrs by MTT assay. The class given is cell-based. Conditions: HEK293, 24 h.
Assay [8] deals with T1, Induced myeloid leukemia cell differentiation protein Mcl-1. As to the kind of experiment: Displacement of FAM-Bid from human Mcl-1 after 30 mins by ELISA.
Assay [9] has as its target T3, Apoptosis regulator Bcl-2 (Homo sapiens, UniProt P10415). Kind of assay: Displacement of FAM-Bid from human recombinant Bcl-2 after 30 mins by ELISA.
The target of assay [10] is T3, Apoptosis regulator Bcl-2. As to the kind of experiment: Displacement of FAM-Bid from human Bcl-2 after 30 mins by fluorescence polarization assay.
Assay [11] concerns the target T4, Apoptosis regulator BAX/Induced myeloid leukemia cell differentiation protein Mcl-1 (Homo sapiens) (UniProt Q07820+Q07812). As to the kind of experiment: Inhibition of Mcl-1/Bax interaction in human MCF7 cells at 10 uM after 3 hrs by Western blotting. The class given is cell-based.
Assay [12] concerns the target T4, Apoptosis regulator BAX/Induced myeloid leukemia cell differentiation protein Mcl-1 (Homo sapiens). Kind of assay: Inhibition of Mcl-1/Bax interaction in human SMMC7721 cells at 10 uM after 3 hrs by Western blotting. To be noted: SMMC-7721. The format is cell-based.
In assay [13] the target is T3, Apoptosis regulator Bcl-2. Kind of assay: Binding affinity to Bcl-2.
Assay [14] deals with T1, Induced myeloid leukemia cell differentiation protein Mcl-1. Kind of assay: Binding affinity to Mcl-1.
Assay [15] concerns the target T2, MCL1-BAK1 complex (Homo sapiens). As to the kind of experiment: Inhibition of Mcl-1/Bak interaction in human SMMC7721 cells expressing high level of Mcl-1 at 10 uM after 3 hrs by Western blotting. To be noted: SMMC-7721. The format is cell-based.

As a reminder, the Ki is the equilibrium dissociation constant of an inhibitor or competing ligand from its target. Usually IC50 stands for the point on the concentration scale where inhibition reaches its midpoint.

T3 sequence (P10415 whole entry): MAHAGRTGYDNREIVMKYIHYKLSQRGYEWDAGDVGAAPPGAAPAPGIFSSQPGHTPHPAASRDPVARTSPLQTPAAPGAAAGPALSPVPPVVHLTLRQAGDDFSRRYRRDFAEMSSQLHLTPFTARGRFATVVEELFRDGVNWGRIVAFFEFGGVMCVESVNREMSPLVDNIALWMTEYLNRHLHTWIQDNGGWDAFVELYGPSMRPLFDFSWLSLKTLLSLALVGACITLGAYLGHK
T1 sequence (Q07820 whole entry): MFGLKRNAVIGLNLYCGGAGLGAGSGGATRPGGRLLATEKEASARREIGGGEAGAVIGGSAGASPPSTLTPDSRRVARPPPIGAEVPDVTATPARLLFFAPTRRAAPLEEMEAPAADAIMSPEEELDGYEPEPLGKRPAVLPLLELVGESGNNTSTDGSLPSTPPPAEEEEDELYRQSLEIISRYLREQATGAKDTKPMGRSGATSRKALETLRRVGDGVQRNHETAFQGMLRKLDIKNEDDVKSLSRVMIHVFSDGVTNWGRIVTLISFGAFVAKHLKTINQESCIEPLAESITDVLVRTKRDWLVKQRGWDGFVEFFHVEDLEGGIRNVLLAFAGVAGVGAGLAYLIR
T4 sequence (Q07812 whole entry, looked up): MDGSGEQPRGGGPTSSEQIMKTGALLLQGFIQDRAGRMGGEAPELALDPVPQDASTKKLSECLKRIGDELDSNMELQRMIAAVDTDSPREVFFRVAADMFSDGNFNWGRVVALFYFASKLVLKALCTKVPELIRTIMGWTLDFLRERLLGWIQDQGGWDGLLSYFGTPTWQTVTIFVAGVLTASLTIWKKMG
T4 sequence (Q07820 whole entry, looked up): as the sequence (Q07820 whole entry) above

`COc1ccc(Oc2ccc3c4c(cccc24)C2=NC(=O)C(C#N)=C23)cc1` showed a Ki in [1] of 258 nM. This lies in the sub-micromolar range.
On to `N#CC1=C2C(=NC1=O)c1cccc3c(Sc4ccccc4)ccc2c13`, for which the result in assay [2] and in assay [3] was inactive. Also, the concentration for half-maximal inhibition (IC50) in assay [4] was over 50000 nM; in assay [5], over 50000 nM; in [6] it was over 50000 nM; in assay [7], over 50 µM.
Consider `Cc1ccc(Sc2ccc3c4c(cccc24)C2=NC(=O)C(C#N)=C23)cc1`, for which the Ki in assay [1] stood at 1510 nM.
With `N#CC1=C2C(=NC1=O)c1cccc3c(N4CCSCC4)ccc2c13`, the Ki in assay [1] turned out to be 62 nM; in [10] it was 319 nM; in assay [13], 310 nM; in [14], 58 nM. Also, the IC50 in [8] is 35 nM; in assay [9], 285 nM; in [4] it was 90 nM; in assay [5] it was 170 nM; in [6], 190 nM; in [7], over 100 µM. The outcome in [11] and in assay [12] was Active.
In turn, `N#CC1=C2C(=NC1=O)c1cccc3c(Oc4ccc(-c5ccccc5)cc4)ccc2c13` came in with an inhibition constant Ki in assay [1] of 1280 nM. This lies in the single-digit micromolar range.
On the same count and under the same terms, under `CN(C)c1ccc(Sc2ccc3c4c(cccc24)C2=NC(=O)C(C#N)=C23)cc1` stands 91 nM.
On to `N#CC1=C2C(=NC1=O)c1cccc3c(Sc4ccc(Br)cc4)ccc2c13`, for which the inhibitory constant (Ki) in assay [1] is 49 nM; in assay [10], 382 nM. For the same compound, the IC50 in assay [4] was 90 nM; in assay [5], 190 nM; in assay [6], 180 nM; in assay [7] it was over 50 µM. Moreover, the result in assay [11] and in assay [12] was Active.
`Cc1ccc(Oc2ccc3c4c(cccc24)C2=NC(=O)C(C#N)=C23)cc1` gave an inhibition constant Ki in [1] of 1920 nM.
On to `N#CC1=C2C(=NC1=O)c1cccc3c(Sc4ccc(N)cc4)ccc2c13`, for which the IC50 in assay [8] is 5 nM; in [9], 302 nM; in assay [4], 12 nM; in [5], 18 nM; in assay [6], 16 nM; in assay [7], over 50 µM. Moreover, the result in assay [2], in assay [3], in assay [11] and in assay [12] was Active. In addition, the result in assay [15] was inactive.
In the case of `CCC(C)(C)c1ccc(Sc2ccc3c4c(cccc24)C2=NC(=O)C(C#N)=C23)cc1`, in assay [1], the inhibition constant Ki was determined as 961 nM. For the same compound, the half-maximal inhibitory concentration (IC50) in assay [8] is 585 nM; in assay [9] it was 342 nM; in [4], 21300 nM; in assay [5], 11900 nM; in [6] it was 25600 nM; in assay [7], over 50 µM.
In assay [1], `CC(C)c1ccc(Oc2ccc3c4c(cccc24)C2=NC(=O)C(C#N)=C23)cc1` showed a Ki of 99 nM.
As to `CC(C)c1ccc(Sc2ccc3c4c(cccc24)C2=NC(=O)C(C#N)=C23)cc1`, the Ki in assay [1] worked out at 82 nM.
The same measure, in the same setting: with `N#CC1=C2C(=NC1=O)c1cccc3c(Sc4ccc(-c5ccccc5)cc4)ccc2c13` the figure was 842 nM; with `CCC(C)(C)c1ccc(Oc2ccc3c4c(cccc24)C2=NC(=O)C(C#N)=C23)cc1`, 967 nM; with `CN(C)c1ccc(Oc2ccc3c4c(cccc24)C2=NC(=O)C(C#N)=C23)cc1`, 122 nM.
Turning to `COc1ccc(Sc2ccc3c4c(cccc24)C2=NC(=O)C(C#N)=C23)cc1`, the Ki in assay [1] was 151 nM.
